The results in this text go back to PubChem BioAssay (NCI).

Some test systems named below: LOX IMVI melanoma; SK-OV-3 ovarian; NCI-H522 lung; OVCAR-4 ovarian; HCT-116 colon; SF-539 CNS; DU-145 prostate; TK-10 renal; U251 CNS; HCC-2998 colon; HS 578T breast; KM12 colon; BT-549 breast; MCF7 breast; SK-MEL-28 melanoma; OVCAR-5 ovarian; MALME-3M melanoma; RPMI-8226 leukemia; OVCAR-8 ovarian.
What all share (assay): inhibition of tumour cell growth, NCI panel, 48 h

The structures appear in SMILES notation.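 48-hour exposure; five concentrations; linearly interpolated endpoints. TGI marks complete inhibition of growth.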 Where only a bound is given, the exact number is not on record here.

Regarding `CC[P+]1(c2ccccc2)[C@@H](C)CC[C@@H]1C`, the TGI in the assay on LOX IMVI melanoma, in the assay on SK-OV-3 ovarian, in the assay with NCI-H522 lung, with OVCAR-4 ovarian, with HCT-116 colon and in the assay on SF-539 CNS was above 100 µM each time. In addition, the TGI in the assay with DU-145 prostate, in the assay on TK-10 renal, with U251 CNS, with HCC-2998 colon, in the assay with HS 578T breast and with KM12 colon was above 100 µM each time. Moreover, the TGI in the assay with BT-549 breast, in the assay on MCF7 breast, in the assay on SK-MEL-28 melanoma, in the assay on OVCAR-5 ovarian, in the assay on MALME-3M melanoma and in the assay on RPMI-8226 leukemia was above 100 µM each time. In the assay with OVCAR-8 ovarian, this compound showed a TGI above 100 µM.
As to `C=CCc1cc(C(Cc2ccccc2)NC(C)C)cc(OCc2ccccc2)c1OCc1ccccc1` (stereo unspecified), the TGI in the assay on LOX IMVI melanoma was 31.7 µM; in the assay on SK-OV-3 ovarian, 27 µM; with NCI-H522 lung it was 28.8 µM; in the assay on OVCAR-4 ovarian it was 33.1 µM; with HCT-116 colon, 31.2 µM; in the assay on SF-539 CNS, 29 µM. The TGI was determined as 29.7 µM in the assay on DU-145 prostate; 30.8 µM with TK-10 renal; 27.7 µM with U251 CNS; 26.7 µM in the assay with HCC-2998 colon; 37.1 µM in the assay with HS 578T breast; 40.2 µM with KM12 colon. In addition, the TGI in the assay with BT-549 breast was 31.4 µM; with MCF7 breast, 32 µM; with SK-MEL-28 melanoma it was 30.2 µM; with OVCAR-5 ovarian it was 33.2 µM; with MALME-3M melanoma it was 28.9 µM; with RPMI-8226 leukemia, 30.9 µM. This compound also yielded a TGI in the assay with OVCAR-8 ovarian of 31.5 µM.
Regarding `CC(C)(C)C1=CC(=C2C=Cc3ccccc3O2)C=C(C(C)(C)C)C1=O`, the TGI in the assay on LOX IMVI melanoma was 12.9 µM; in the assay on SK-OV-3 ovarian, above 42.4 µM; in the assay on NCI-H522 lung, 17.8 µM; with OVCAR-4 ovarian, 16.8 µM; with HCT-116 colon, 11.4 µM; in the assay on SF-539 CNS, 20 µM. Besides, the TGI in the assay with DU-145 prostate is 20.8 µM; with TK-10 renal, 16.5 µM; with U251 CNS, 7.51 µM; in the assay on HCC-2998 colon it was 2.99 µM; in the assay on HS 578T breast, above 47.6 µM; in the assay with KM12 colon it was 9.7 µM. For the same compound, the TGI in the assay on BT-549 breast amounted to 22.1 µM; with MCF7 breast it was 13.1 µM; in the assay on SK-MEL-28 melanoma, 22.2 µM; with OVCAR-5 ovarian, 15.3 µM; in the assay with MALME-3M melanoma it was 14.5 µM; in the assay with RPMI-8226 leukemia, 5.45 µM. In the assay with OVCAR-8 ovarian, this compound gave a TGI above 51.8 µM.
For `C=CCN(c1cc(OC)c2[nH]c(C(=O)OCC)c(C)c2c1[N+](=O)[O-])S(C)(=O)=O`, the TGI with LOX IMVI melanoma was 39.4 µM; in the assay on SK-OV-3 ovarian it was above 100 µM; in the assay on NCI-H522 lung, 43.9 µM; in the assay with OVCAR-4 ovarian it was above 100 µM; in the assay on HCT-116 colon, 58.3 µM; in the assay on SF-539 CNS, above 100 µM. Besides, the TGI in the assay with DU-145 prostate is above 100 µM; in the assay with TK-10 renal, above 100 µM; in the assay on U251 CNS, 31.6 µM; in the assay with HCC-2998 colon, above 100 µM; in the assay with HS 578T breast, 58.7 µM; in the assay on KM12 colon it was 66.2 µM. Moreover, the TGI in the assay on BT-549 breast is 60.5 µM; in the assay with MCF7 breast, 52.2 µM; in the assay on SK-MEL-28 melanoma it was above 100 µM; with OVCAR-5 ovarian, 99.1 µM; with MALME-3M melanoma, 60.8 µM; in the assay with RPMI-8226 leukemia it was 32.8 µM. In the assay on OVCAR-8 ovarian, this compound registered a TGI above 100 µM.
As for `COc1ccc2c3c1OC1C34CCN(C)C(C2)C4=CC(I)C1(OC)OC` (stereo unspecified), the TGI came out at 23.9 µM with LOX IMVI melanoma; 28.9 µM in the assay with SK-OV-3 ovarian; 15.3 µM with NCI-H522 lung; 30 µM in the assay on OVCAR-4 ovarian; 14.6 µM in the assay on HCT-116 colon; 40.6 µM in the assay with SF-539 CNS. For the same compound, the TGI was 22.6 µM in the assay on DU-145 prostate; 27.8 µM with TK-10 renal; 29.8 µM in the assay with U251 CNS; 21.9 µM in the assay on HCC-2998 colon; 79.7 µM with HS 578T breast; 28.3 µM with KM12 colon. Moreover, the TGI with BT-549 breast is 36.2 µM; in the assay on MCF7 breast it was 19 µM; in the assay with SK-MEL-28 melanoma, 25.9 µM; in the assay with OVCAR-5 ovarian, 38.4 µM; in the assay on MALME-3M melanoma it was 21.9 µM; with RPMI-8226 leukemia, 14.2 µM. Besides, the TGI in the assay with OVCAR-8 ovarian is 16.1 µM.
On to `c1ccc2c(c1)ccn1ccc3c4ccccc4nc-3c21`, for which the TGI amounted to 1.48 µM with LOX IMVI melanoma; 2.9 µM with SK-OV-3 ovarian; 1.7 µM in the assay on NCI-H522 lung; 1.75 µM with OVCAR-4 ovarian; 1.48 µM with SF-539 CNS; 1.72 µM in the assay on DU-145 prostate. Further, the TGI came to 4.34 µM in the assay with TK-10 renal; 1.47 µM with U251 CNS; 1.16 µM in the assay with HCC-2998 colon; 4.25 µM in the assay with HS 578T breast; 1.92 µM in the assay with KM12 colon; 3.82 µM with BT-549 breast. The TGI in the assay on MCF7 breast turned out to be 1.11 µM; in the assay on SK-MEL-28 melanoma, 1.8 µM; in the assay with OVCAR-5 ovarian, 2.36 µM; in the assay with MALME-3M melanoma it was 2.01 µM; in the assay on RPMI-8226 leukemia, 0.799 µM; in the assay with OVCAR-8 ovarian, 1.78 µM.
Take `N#C/C(N)=C(\C#N)N=CNc1ccc(N)cc1`: the TGI in the assay with LOX IMVI melanoma, in the assay with SK-OV-3 ovarian, in the assay on NCI-H522 lung, in the assay with OVCAR-4 ovarian, in the assay with HCT-116 colon and in the assay on SF-539 CNS was above 100 µM throughout. Further, the TGI in the assay on DU-145 prostate, in the assay on TK-10 renal, in the assay with U251 CNS, in the assay on HCC-2998 colon, with HS 578T breast and in the assay on KM12 colon was above 100 µM throughout. Moreover, the TGI with BT-549 breast, in the assay with MCF7 breast, with SK-MEL-28 melanoma, with OVCAR-5 ovarian, in the assay on MALME-3M melanoma and in the assay on RPMI-8226 leukemia was above 100 µM each time. The compound also came in with a TGI with OVCAR-8 ovarian above 100 µM.
Take `CCN(CC)CCCNc1[nH]ncc2c(C)c3nc4ccc(OC)cc4c3cc12`: the TGI with LOX IMVI melanoma worked out at 0.829 µM; with SK-OV-3 ovarian, 5.33 µM; in the assay on NCI-H522 lung, 0.639 µM; in the assay on OVCAR-4 ovarian, 2.75 µM; in the assay on HCT-116 colon, 1.41 µM; with SF-539 CNS, 1.16 µM. For the same compound, the TGI was 8.24 µM in the assay on DU-145 prostate; 9.16 µM in the assay on TK-10 renal; 1.77 µM in the assay on U251 CNS; 2.33 µM in the assay on HCC-2998 colon; 4.25 µM in the assay on HS 578T breast; 4.49 µM in the assay with KM12 colon. The TGI with BT-549 breast is 3.19 µM; with MCF7 breast it was 1.28 µM; with SK-MEL-28 melanoma it was 2.01 µM; with OVCAR-5 ovarian, 6.66 µM; in the assay on MALME-3M melanoma it was 2.36 µM; with RPMI-8226 leukemia it was 2.69 µM. For the same compound, the TGI with OVCAR-8 ovarian stood at 2.01 µM.
